Results published in patent publication US9776965B2, “Pyrrolidin-2-one and piperidin-2-one derivatives as 11-beta hydroxysteroid dehydrogenase inhibitors” (Janssen Pharmaceutica N.V., priority 2004, dated 2017).
pIC50: −log10 of the molar value.

Key:
11b-HSD1 [1] = target: 11b-HSD1 (Homo sapiens, UniProt P28845); assay: Enzymatic assay, 11b-HSD1 dependent conversion of cortisone into cortisol (reductase activity); assay type: biochemical; conditions: recombinant protein, 2 μM cortisone, 45 min at 37 C; for pIC50: read-out: [C1] HSD1-prot Reduct Score
11b-HSD1 (Homo sapiens, UniProt P28845), sequence (P28845 whole entry): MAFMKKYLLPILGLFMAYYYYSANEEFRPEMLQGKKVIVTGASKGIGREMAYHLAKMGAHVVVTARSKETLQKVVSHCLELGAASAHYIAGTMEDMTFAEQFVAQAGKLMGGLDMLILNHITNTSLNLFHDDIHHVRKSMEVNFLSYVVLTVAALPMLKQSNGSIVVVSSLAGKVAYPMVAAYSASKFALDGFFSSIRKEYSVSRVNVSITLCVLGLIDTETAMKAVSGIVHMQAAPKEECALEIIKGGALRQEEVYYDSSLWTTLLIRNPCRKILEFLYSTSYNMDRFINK
Method: The effects of compounds on 11b-HSD1 dependent conversion of cortisone into cortisol (reductase activity) was studied in a reaction mixture containing 30 mM Tris-HCl buffer pH 7.2, 180 μM NADPH, 1 mM EDTA, 2 μM cortisone, 1 μl drug and/or solvent and 11 μg recombinant protein in a final volume of 100 μl.
All incubations were performed for 45 min at 37 C in a water bath. The reaction was stopped by adding 100 μl acetonitrile containing 20 μg corticosterone as internal standard. After centrifugation, the product formation was analysed in the supernatant by HPLC on a Hypersyl BDS-C18 column using 0.05 mM ammonium acetate/methanol (50/50) as solvent. In all of the aforementioned assays, the drugs to be tested were taken from a stock solution and tested at a final concentration ranging from […] to 3.10^−9M. From the thus obtained dose response curves, the pIC50 value was calculated and scored as follows; Score 1=pIC50 value<5, Score 2=pIC50 value in the range of 5 to 6, Score 3=pIC50 value>6. (in this table NT stands for Not Tested).

11b-HSD1 [2] = target: T1, 11b-HSD1 (Mus musculus, UniProt P50172); assay: Cellular assay, 11b-HSD1 activity in differentiated 3T3-L1 cells; assay type: cell-based; conditions: 4 hour pre-incubation; for pIC50: read-out: [C2] HSD1 cellular 3T3-L1 Score
T1 construct: Fibroblasts were differentiated into adipocytes; endogenous in cells; host or cells: differentiated 3T3-L1 cells (ATCC-CL-173)
T1 sequence (P50172 whole entry): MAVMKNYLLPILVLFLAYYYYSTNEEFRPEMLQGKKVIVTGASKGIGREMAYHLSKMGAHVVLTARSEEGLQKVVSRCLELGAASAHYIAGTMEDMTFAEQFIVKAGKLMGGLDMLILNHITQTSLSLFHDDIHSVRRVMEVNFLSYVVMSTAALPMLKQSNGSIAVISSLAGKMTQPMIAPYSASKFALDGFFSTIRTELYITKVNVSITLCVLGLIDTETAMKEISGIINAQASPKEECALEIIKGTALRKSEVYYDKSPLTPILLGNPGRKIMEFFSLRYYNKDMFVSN
Method: The effects on 11b-HSD1 activity was measured in differentiated 3T3-L1 cells and rat hepatocytes.
Mouse fibroblast 3T3-L1 cells (ATCC-CL-173) were seeded at a density of 16500 cells/ml in 12 well plates and grown for 7 days in DMEM medium (supplemented with 10% heat inactivated foetal calf serum, 2 mM glutamine and 25 mg gentamycin) at 37 C in a humidified 5% CO2 atmosphere. Medium was refreshed twice a week. Fibroblasts were differentiated into adipocytes at 37 C in a 5% CO2 humidified atmosphere in growth medium containing 2 μg/ml insulin, 55 μg/ml IBMX and 39.2 μg/ml dexamethasone.
Following a 4 hour pre-incubation with test compound, 0.5 μCi ^3H-cortisone or dehydrocorticosterone, was added to the cultures. One hour later, the medium was extracted on Extrelut^3-columns with 15 ml diethyl ether and the extract was analysed by HPLC as described above.
As for the enzymatic assays, the compounds to be tested were taken from a stock solution and tested at a final concentration ranging from […] to 3.10^−9M. From the thus obtained dose response curves, the pIC50 value was calculated and scored as follows; Score 1=pIC50 value<5, Score 2=pIC50 value in the range of 5 to 6, Score 3=pIC50 value>6. Some of the thus obtained results are summarized in the table below (in this table NT stands for Not Tested).

| Structure (SMILES) | pIC50 (11b-HSD1 [1]) | pIC50 (11b-HSD1 [2]) | [C1] HSD1-prot Reduct Score (11b-HSD1 [1]) | [C2] HSD1 cellular 3T3-L1 Score (11b-HSD1 [2]) |
| --- | --- | --- | --- | --- |
| CCCC1(Cc2ccccc2C)CCN([C@@H](C)c2ccccc2)C1=O (mixture of isomers) [Compound 146] | < 5.00 | < 5.00 | – | – |
| Cc1ccccc1CC1(Cc2ccccc2)CCN([C@@H](C)c2ccccc2)C1=O (mixture of isomers) [Compound 147] | < 5.00 | < 5.00 | – | – |
| CCC(CC1(CC(CC)c2ccccc2)CCN([C@@H](C)c2ccccc2)C1=O)c1ccccc1 (mixture of isomers) [Compound 165] | < 5.00 | < 5.00 | – | – |
| O=C1C(Cc2c(Cl)cccc2Cl)CCN1[C@H](Cc1ccccc1)c1ccccc1 (single isomer, unassigned) [Compound 103] | < 5.00 | < 5.00 | – | – |
| COc1ccccc1C[C@@H]1CCN([C@@H](C)c2ccccc2)C1=O [Compound 8] | 5.00 to 6.00 | 5.00 to 6.00 | – | – |
| C[C@@H](c1ccccc1)N1CC[C@H](Cc2cccc(Cl)c2Cl)C1=O [Compound 11] | > 6.00 | 5.00 to 6.00 | – | – |
| C[C@@H](c1ccccc1)N1CC[C@@H](Cc2cccc(Cl)c2Cl)C1=O [Compound 12] | 5.00 to 6.00 | 5.00 to 6.00 | – | – |
| Cc1cccc(C[C@H]2CCN([C@@H](C)c3ccccc3)C2=O)c1 [Compound 15] | 5.00 to 6.00 | 5.00 to 6.00 | – | – |
| Cc1cccc(C[C@@H]2CCN([C@@H](C)c3ccccc3)C2=O)c1 [Compound 16] | < 5.00 | 5.00 to 6.00 | – | – |
| C[C@@H](c1ccccc1)N1CC[C@H](Cc2cccc(Cl)c2)C1=O [Compound 17] | 5.00 to 6.00 | 5.00 to 6.00 | – | – |
| C[C@@H](c1ccccc1)N1CC[C@@H](Cc2cccc(Cl)c2)C1=O [Compound 18] | 5.00 to 6.00 | 5.00 to 6.00 | – | – |
| COc1cccc(C[C@H]2CCN([C@@H](C)c3ccccc3)C2=O)c1 [Compound 19] | 5.00 to 6.00 | > 6.00 | – | – |
| COc1cccc(C[C@@H]2CCN([C@@H](C)c3ccccc3)C2=O)c1 [Compound 20] | < 5.00 | < 5.00 | – | – |
| COc1ccc(C[C@H]2CCN([C@@H](C)c3ccccc3)C2=O)cc1 [Compound 21] | 5.00 to 6.00 | > 6.00 | – | – |
| COc1ccc(C[C@@H]2CCN([C@@H](C)c3ccccc3)C2=O)cc1 [Compound 22] | < 5.00 | 5.00 to 6.00 | – | – |
| N#Cc1ccccc1CC1CCN(CCc2ccccc2)C1=O (stereo not drawn) [Compound 23] | 5.00 to 6.00 | > 6.00 | – | – |
| COc1cccc(CC2CCN(CCc3ccccc3)C2=O)c1 (stereo not drawn) [Compound 24] | 5.00 to 6.00 | < 5.00 | – | – |
| Cc1ccc(CC2CCN(Cc3ccccc3)C2=O)cc1 (stereo not drawn) [Compound 25] | < 5.00 | > 6.00 | – | – |
| Cc1ccc(C[C@H]2CCN([C@H](C)c3ccccc3)C2=O)cc1 [Compound 26] | < 5.00 | 5.00 to 6.00 | – | – |
| Cc1cccc(CC2CCN(CCc3ccccc3)C2=O)c1 (stereo not drawn) [Compound 29] | 5.00 to 6.00 | 5.00 to 6.00 | – | – |
| COc1ccccc1CC1CCN(CCc2ccccc2)C1=O (stereo not drawn) [Compound 33] | < 5.00 | > 6.00 | – | – |

| Structure (SMILES) | pIC50 (11b-HSD1 [1]) | pIC50 (11b-HSD1 [2]) | [C1] HSD1-prot Reduct Score (11b-HSD1 [1]) | [C2] HSD1 cellular 3T3-L1 Score (11b-HSD1 [2]) |
| --- | --- | --- | --- | --- |
| O=C1C(Cc2ccccc2)CCN1CCc1ccccc1 (stereo not drawn) [Compound 34] | < 5.00 | 5.00 to 6.00 | – | – |
| C[C@H](c1ccccc1)N1CC[C@H](Cc2ccccc2)C1=O [Compound 36] | < 5.00 | 5.00 to 6.00 | – | – |
| C[C@H](c1ccccc1)N1CC[C@@H](Cc2ccccc2)C1=O [Compound 37] | < 5.00 | 5.00 to 6.00 | – | – |
| COc1ccccc1C[C@@H]1CCN([C@H](C)c2ccccc2)C1=O [Compound 38] | < 5.00 | 5.00 to 6.00 | – | – |
| COc1ccccc1C[C@H]1CCN([C@H](C)c2ccccc2)C1=O [Compound 39] | < 5.00 | 5.00 to 6.00 | – | – |
| C[C@H](c1ccccc1)N1CC[C@@H](Cc2ccccc2Cl)C1=O [Compound 40] | 5.00 to 6.00 | > 6.00 | – | – |
| C[C@H](c1ccccc1)N1CC[C@@H](Cc2cccc(Cl)c2Cl)C1=O [Compound 42] | < 5.00 | 5.00 to 6.00 | – | – |
| C[C@H](c1ccccc1)N1CC[C@H](Cc2cccc(Cl)c2Cl)C1=O [Compound 43] | 5.00 to 6.00 | 5.00 to 6.00 | – | – |
| C[C@H](c1ccccc1)N1CC[C@@H](Cc2c(Cl)cccc2Cl)C1=O [Compound 44] | < 5.00 | 5.00 to 6.00 | – | – |
| C[C@H](c1ccccc1)N1CC[C@@H](Cc2cccc(Cl)c2)C1=O [Compound 46] | < 5.00 | < 5.00 | – | – |
| C[C@H](c1ccccc1)N1CC[C@H](Cc2cccc(Cl)c2)C1=O [Compound 47] | < 5.00 | 5.00 to 6.00 | – | – |
| COc1cccc(CC2CCN(Cc3ccccc3)C2=O)c1 (stereo not drawn) [Compound 48] | < 5.00 | 5.00 to 6.00 | – | – |
| C[C@H](c1ccccc1)N1CC[C@@H](Cc2ccccc2C#N)C1=O [Compound 49] | 5.00 to 6.00 | > 6.00 | – | – |
| COc1ccc(C[C@@H]2CCN([C@H](C)c3ccccc3)C2=O)cc1 [Compound 50] | < 5.00 | 5.00 to 6.00 | – | – |
| O=C1C(Cc2cccc(Cl)c2)CCN1Cc1ccccc1 (stereo not drawn) [Compound 51] | < 5.00 | 5.00 to 6.00 | – | – |
| COc1cccc(C[C@@H]2CCN([C@H](C)c3ccccc3)C2=O)c1 [Compound 52] | < 5.00 | 5.00 to 6.00 | – | – |
| O=C1C(Cc2cccc(O)c2)CCN1Cc1ccccc1 (stereo not drawn) [Compound 53] | < 5.00 | 5.00 to 6.00 | – | – |
| N#Cc1ccccc1CC1CCN(Cc2ccccc2)C1=O (stereo not drawn) [Compound 54] | < 5.00 | 5.00 to 6.00 | – | – |
| Cc1ccccc1CC1CCN(Cc2ccccc2)C1=O (stereo not drawn) [Compound 55] | < 5.00 | 5.00 to 6.00 | – | – |
| Cc1cccc(CC2CCN(Cc3ccccc3)C2=O)c1 (stereo not drawn) [Compound 56] | < 5.00 | 5.00 to 6.00 | – | – |
| O=C1C(Cc2cccc(Cl)c2Cl)CCN1Cc1ccccc1 (stereo not drawn) [Compound 58] | 5.00 to 6.00 | 5.00 to 6.00 | – | – |

| Structure (SMILES) | pIC50 (11b-HSD1 [1]) | pIC50 (11b-HSD1 [2]) | [C1] HSD1-prot Reduct Score (11b-HSD1 [1]) | [C2] HSD1 cellular 3T3-L1 Score (11b-HSD1 [2]) |
| --- | --- | --- | --- | --- |
| COc1ccccc1CC1CCN(Cc2ccccc2)C1=O (stereo not drawn) [Compound 60] | < 5.00 | 5.00 to 6.00 | – | – |
| O=C1C(Cc2ccccc2)CCN1Cc1ccccc1 (stereo not drawn) [Compound 61] | < 5.00 | 5.00 to 6.00 | – | – |
| Cc1ccccc1C[C@@H]1CCN([C@H](C)c2ccccc2)C1=O [Compound 62] | < 5.00 | 5.00 to 6.00 | – | – |
| Cc1cccc(C[C@@H]2CCN([C@H](C)c3ccccc3)C2=O)c1 [Compound 63] | < 5.00 | 5.00 to 6.00 | – | – |
| C[C@H](c1ccccc1)N1CC[C@H](Cc2ccccc2C#N)C1=O [Compound 64] | < 5.00 | 5.00 to 6.00 | – | – |
| COc1cccc(C[C@H]2CCN([C@H](C)c3ccccc3)C2=O)c1 [Compound 66] | < 5.00 | 5.00 to 6.00 | – | – |
| Cc1ccccc1C[C@H]1CCN([C@H](C)c2ccccc2)C1=O [Compound 67] | 5.00 to 6.00 | > 6.00 | – | – |
| Cc1cccc(C[C@H]2CCN([C@H](C)c3ccccc3)C2=O)c1 [Compound 68] | < 5.00 | 5.00 to 6.00 | – | – |
| C[C@@H](c1ccccc1)N1CC[C@@H](CCc2ccccc2)C1=O [Compound 72] | < 5.00 | 5.00 to 6.00 | – | – |
| C[C@@H](c1ccccc1)N1CC[C@H](CCc2ccccc2)C1=O [Compound 73] | > 6.00 | 5.00 to 6.00 | – | – |
| C[C@@H](c1ccccc1)N1CC[C@@H](CCc2cccc3ccccc23)C1=O [Compound 74] | 5.00 to 6.00 | 5.00 to 6.00 | – | – |
| C[C@@H](c1ccccc1)N1CC[C@H](CCc2cccc3ccccc23)C1=O [Compound 75] | > 6.00 | 5.00 to 6.00 | – | – |
| Cc1cccc(C)c1C[C@@H]1CCN([C@@H](C)c2ccccc2)C1=O [Compound 76] | – | – | 3 (Score 3=pIC50 value>6) | 2 (Score 2=pIC50 value in the range of 5 to 6) |
| O=C1C(Cc2c(Cl)cccc2Cl)CCN1CCc1ccc(F)cc1 (stereo not drawn) [Compound 81] | < 5.00 | – | – | 3 (Score 3=pIC50 value>6) |
| O=C1C(Cc2c(Cl)cccc2Cl)CCN1CCc1ccc(Br)cc1 (stereo not drawn) [Compound 82] | > 6.00 | 5.00 to 6.00 | – | – |
| Cc1cccc(C)c1CC1CCN(CCc2ccccc2)C1=O (stereo not drawn) [Compound 83] | > 6.00 | < 5.00 | – | – |
| O=C1C(Cc2c(F)cccc2F)CCN1CCc1ccccc1 (stereo not drawn) [Compound 84] | 5.00 to 6.00 | > 6.00 | – | – |
| C[C@@H](c1ccccc1)N1CCC(C)(c2ccccc2)C1=O (stereo partly drawn) [Compound 166] | – | 5.00 to 6.00 | – | – |
| C[C@H](c1ccccc1)N1CCC(C)(c2ccccc2)C1=O (stereo partly drawn) [Compound 167] | – | < 5.00 | – | – |
